Where only a bound is given, the exact number is not on record here.

Data set [1] relates to HCT116 cells and MKN45 cells. The experiment in a line: Test C: measurement of cell proliferation by 14C-thymidine pulse. The class given is cell-based. The following applies: 14C-thymidine incorporation, 96 h of treatment; cell line not given. The protocol: The cells are seeded into Cytostar 96-well plates in 180 μl for 4 hours at 37° C. and 5% CO2: HCT116 cells in a proportion of 2500 cells per well in DMEM medium+10% foetal calf serum+1% L-glutamine, and MKN45 cells in a proportion of 7500 cells per well in RPMI medium+10% foetal calf serum+1% L-glutamine. After these 4 hours of incubation, the products are added in 10 μl as a […] concentrated solution according to the dilution method mentioned for the ELISA. The products are tested at 10 concentrations in duplicate from 10 000 nM to 0.3 nM with an increment of 3.
After treatment for 72 h, 10 μl of ^14C-thymidine at 10 μCi/ml are added so as to obtain 0.1 μCi per well. The ^14C-thymidine incorporation is measured on a Micro-Beta machine (Perkin-Elmer) after 24 hours of pulse and 96 h of treatment.
All the steps of the assay are automated on BIOMEK 2000 or TECAN stations.

For data set [2], the target named is T1, MET (Homo sapiens, UniProt P08581). The experiment in a line: Test B: inhibition of the autophosphorylation of MET, ELISA technique (pppY1230,1234,1235) in MKN45 cells. Also on record: endogenous in cells; host or cells: MKN45 cells. Type of data set: cell-based. The note with it: 1 h treatment, phosphoMET ELISA. On the procedure:
B) Test B: Inhibition of the autophosphorylation of MET; ELISA technique (pppY1230,1234,1235) a) Cell lysates: MKN45 cells are seeded into 96-well plates (cell coat BD polylysine) at 20 000 cells/well in 200 μl in RPMI medium+10% FCS+1% L-glutamine. They are left to adhere for 24 hours in an incubator.
The cells are treated the day after seeding with the products at 6 concentrations, in duplicate, for 1 h. At least 3 control wells are treated with the same final amount of DMSO.
Product dilution: Stock at 10 mM in pure DMSO—range from 10 mM to 30 μM with an increment of 3 in pure DMSO—intermediate dilutions to 1/50 in culture medium and then removal of 10 μl added directly to the cells (200 μl): final range of 10 000 to 30 nM.
At the end of the incubation, the supernatant is carefully removed and rinsing is performed with 200 μl of PBS. Next, 100 μl of lysis buffer are placed directly in the wells on ice and incubated at 4° C. for 30 minutes. Lysis buffer: 10 mM Tris HCl, pH 7.4, 100 mM NaCl, 1 mM EDTA, 1 mM EGTA, 1% Triton X-100, 10% glycerol, 0.1% SDS, 0.5% deoxycholate, 20 mM NaF, 2 mM Na3VO4, 1 mM PMSF and cocktail of antiproteases.
The 100 μl of lysates are transferred into a V-bottomed polypropylene plate and the ELISA is performed immediately, or the plate is frozen at −80° C.
70 μl of kit dilution buffer+30 μL of cell lysate, or 30 μl of lysis buffer for the blanks, are added to each well of the kit plate. Incubation is carried out for 2 h with gentle agitation at ambient temperature.
The wells are rinsed 4 times with 400 μl of kit washing buffer. Incubation is carried out with 100 μl of anti-phospho MET antibody for 1 hour at ambient temperature.
The wells are rinsed 4 times with 400 μl of kit washing buffer. Incubation is carried out with 100 μl of anti-rabbit HRP antibody for 30 minutes at ambient temperature (except for the wells of chromogen alone).
The wells are rinsed 4 times with 400 μl of kit washing buffer. 100 μL of chromogen are introduced and incubation is carried out for 30 minutes in the dark at ambient temperature.
The reaction is stopped with 100 μl of stop solution. The plate is read without delay at […], 0.1 second on a Wallac Victor plate reader.
Target sequence in this assay (P08581 25-1390): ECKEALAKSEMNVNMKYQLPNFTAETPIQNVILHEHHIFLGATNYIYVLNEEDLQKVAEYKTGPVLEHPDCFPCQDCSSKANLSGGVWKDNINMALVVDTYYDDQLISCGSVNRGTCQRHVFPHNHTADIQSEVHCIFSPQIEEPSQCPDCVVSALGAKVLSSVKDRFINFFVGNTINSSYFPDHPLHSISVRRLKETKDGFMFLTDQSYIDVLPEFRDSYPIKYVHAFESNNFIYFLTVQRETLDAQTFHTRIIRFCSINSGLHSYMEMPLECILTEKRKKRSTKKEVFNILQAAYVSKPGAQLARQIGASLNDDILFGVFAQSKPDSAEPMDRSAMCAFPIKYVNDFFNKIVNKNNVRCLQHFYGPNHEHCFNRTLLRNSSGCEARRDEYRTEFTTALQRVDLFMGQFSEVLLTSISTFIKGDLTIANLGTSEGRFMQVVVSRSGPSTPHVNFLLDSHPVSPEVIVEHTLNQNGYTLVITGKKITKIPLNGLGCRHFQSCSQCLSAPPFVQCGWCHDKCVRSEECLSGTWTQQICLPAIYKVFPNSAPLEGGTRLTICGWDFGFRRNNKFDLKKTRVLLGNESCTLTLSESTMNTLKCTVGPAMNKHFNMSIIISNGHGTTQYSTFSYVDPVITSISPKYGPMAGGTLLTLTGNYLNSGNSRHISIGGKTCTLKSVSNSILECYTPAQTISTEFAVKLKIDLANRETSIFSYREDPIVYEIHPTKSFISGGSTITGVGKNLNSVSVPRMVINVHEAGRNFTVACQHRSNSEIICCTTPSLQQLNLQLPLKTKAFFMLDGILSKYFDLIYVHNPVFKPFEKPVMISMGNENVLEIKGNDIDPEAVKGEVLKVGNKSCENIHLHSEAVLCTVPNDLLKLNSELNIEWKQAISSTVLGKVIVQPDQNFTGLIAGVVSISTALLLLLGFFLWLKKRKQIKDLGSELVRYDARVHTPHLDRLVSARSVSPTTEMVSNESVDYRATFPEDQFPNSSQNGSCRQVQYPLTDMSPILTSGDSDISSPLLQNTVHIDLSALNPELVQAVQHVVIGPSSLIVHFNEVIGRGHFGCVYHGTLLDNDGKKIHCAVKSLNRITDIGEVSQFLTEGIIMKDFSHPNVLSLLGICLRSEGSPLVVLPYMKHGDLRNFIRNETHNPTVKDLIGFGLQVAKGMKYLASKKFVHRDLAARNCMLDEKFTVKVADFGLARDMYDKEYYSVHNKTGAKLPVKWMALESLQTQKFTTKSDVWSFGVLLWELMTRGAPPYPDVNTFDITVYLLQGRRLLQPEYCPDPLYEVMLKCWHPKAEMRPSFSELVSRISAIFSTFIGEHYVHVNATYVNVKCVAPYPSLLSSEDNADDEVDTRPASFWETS
On the technique in general: ELISA stands for enzyme-linked immunosorbent assay.

Data set [3] deals with T1, MET. The experiment in a line: Test A: HTRF MET assay in 96-well format. Type of data set: biochemical. The following applies: MET 5 nM, 10 μM ATP, poly-(GAT). Also on record: The His-Tev-MET (956-1390) recombinant DNA in pFastBac (Invitrogen) is transfected into insect cells; His-Tev (histidine tag with TEV cleavage site) (N, cleaved yes); made in house; host or cells: SF21 insect cells (baculovirus, pFastBac). The protocol:
The His-Tev-MET (956-1390) recombinant DNA in pFastBac (Invitrogen) is transfected into insect cells and, after several viral amplification steps, the final baculovirus stock is tested for the expression of the protein of interest.
After infection for 72 h at 27° C. with the recombinant virus, SF21 cell cultures are harvested by centrifugation and the cell pellets are stored at −80° C.
The cell pellets are resuspended in the lysis buffer (buffer A [50 mM HEPES, pH 7.5, 250 mM NaCl, 10% glycerol, 1 mM TECP]; +cocktail of protease inhibitors, Roche Diagnostics, without EDTA, ref 1873580), stirred at 4° C. until the mixture is homogeneous, and then lysed mechanically using a “Dounce” type apparatus.
After centrifugation, the lysis supernatant is incubated for 2 h at 4° C. with nickel chelate resin (His-Trap 6 Fast Flow™, GE HealthCare). After washing with 20 volumes of buffer A, the suspension is packed into a column, and the proteins are eluted with a gradient of buffer B (buffer A+290 mM imidazole).
The fractions containing the protein of interest, for the purpose of electrophoretic analysis (SDS PAGE), are combined, concentrated by ultrafiltration (10 kDa cut-off) and injected onto an exclusion chromatography column (Superdex™ 200, GE HealthCare) equilibrated in buffer A.
After enzymatic cleavage of the histidine tag, the protein is reinjected onto a new IMAC nickel chelate chromatography column (His-Trap 6 Fast Flow™, GE HealthCare) equilibrated in buffer A. The fractions eluted with a gradient of buffer B and containing the protein of interest after electrophoresis (SDS PAGE) are finally combined and stored at −80° C.
For the production of autophosphorylated protein, the previous fractions are incubated for 1 h at ambient temperature after the addition of 2 mM ATP, 2 mM MgCl2 and 4 mM Na3VO4. After the reaction has been stopped with 5 mM of EDTA, the reaction mixture is injected onto a HiPrep desalifying column (GE HealthCare) pre-equilibrated in buffer A+4 mM Na3VO4, and the fractions containing the protein of interest (SDS PAGE analysis) are combined and stored at −80° C. The degree of phosphorylation is verified by mass spectrometry (LC-MS) and by peptide mapping.
MET at a final concentration of 5 nM is incubated in a final volume of 50 μl of enzymatic reaction in the presence of the test molecule (for a final concentration range of from 0.17 nM to 10 μM, 3% DMSO final concentration) in 10 mM MOPS buffer, pH 7.4, 1 mM DTT, 0.01% Tween 20. The reaction is initiated with the substrate solution to obtain final concentrations of 1 μg/ml poly-(GAT), 10 μM ATP and 5 mM MgCl2. After incubation for 10 min at ambient temperature, the reaction is stopped with a 30 μl mix so as to obtain a final solution of 50 mM Hepes, pH 7.5, 500 mM potassium fluoride, 0.1% BSA and 133 mM EDTA in the presence of 80 ng of streptavidin 61SAXLB Cis-Bio Int. and 18 ng of anti-phosphotyrosine Mab PT66-Europium Cryptate per well. After incubation for 2 hours at ambient temperature, the reading is taken at 2 wavelengths, 620 nm and 665 nm, on a reader for the TRACE/HTRF technique, and the % inhibition is calculated from the 665/620 ratios.
Target sequence in this assay (P08581 956-1390): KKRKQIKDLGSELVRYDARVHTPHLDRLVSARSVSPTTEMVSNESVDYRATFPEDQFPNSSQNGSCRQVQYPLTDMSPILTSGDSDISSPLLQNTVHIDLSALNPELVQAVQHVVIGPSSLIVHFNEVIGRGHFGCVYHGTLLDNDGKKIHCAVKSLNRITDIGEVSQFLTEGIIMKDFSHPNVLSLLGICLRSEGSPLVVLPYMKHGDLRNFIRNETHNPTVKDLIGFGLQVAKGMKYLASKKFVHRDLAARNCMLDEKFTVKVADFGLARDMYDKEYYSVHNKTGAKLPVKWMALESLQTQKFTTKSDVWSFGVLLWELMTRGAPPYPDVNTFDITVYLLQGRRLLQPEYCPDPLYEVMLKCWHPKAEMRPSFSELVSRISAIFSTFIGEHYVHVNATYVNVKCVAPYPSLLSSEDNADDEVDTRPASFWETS
(In general: TR-FRET usually uses a lanthanide donor and a delayed reading to cut background.)

A word on the IC50: it is the point on the concentration scale where inhibition reaches its midpoint. Broadly, the melting point is the temperature, or range, at which the solid turns liquid. Turning to `COCCNC(=O)Nc1nc2ccc(Sc3nnc4ccccn34)cc2s1` [Example 5, 1-(2-methoxyethyl)-3-[6-([1,2,4]triazolo[4,3-a]pyridin-3-ylsulphanyl)-1,3-benzothiazol-2-yl]urea], the melting point was 252 to 257 °C. This molecule registered an IC50 in data set [1] of less than 1000 nM. Besides, on MET [2], the IC50 is less than 100 nM. At MET [3], the IC50 is less than 100 nM.

In turn, `Nc1nc2ccc(Sc3nnc4ccc(-c5ccc(F)cc5)cn34)cc2s1` [Example 7, 6-{[6-(4-fluorophenyl)[1,2,4]triazolo[4,3-a]pyridin-3-yl]sulphanyl}-1,3-benzothiazol-2-amine] gave a melting point of more than 264 °C. Besides, the IC50 in data set [1] was less than 1000 nM. The molecule also yielded a half-inhibitory concentration (IC50) against MET [2] of less than 100 nM. Besides, the IC50 at MET [3] is less than 100 nM.

As to `O=C(Nc1nc2ccc(Sc3nnc4ccc(-c5cn[nH]c5)cn34)cc2s1)C1CC1` [Example 11, N-(6-{[6-(1H-pyrazol-4-yl)[1,2,4]triazolo[4,3-a]pyridin-3-yl]-sulphanyl}-1,3-benzothiazol-2-yl)cyclopropanecarboxamide], the melting point was more than 260 °C. In data set [1], this molecule had an IC50 of less than 1000 nM. This molecule also registered an IC50 on MET [2] of less than 100 nM. In addition, the IC50 on MET [3] is less than 100 nM.

`Cc1ccc(-c2ccc3nnc(Sc4ccc5nc(NC(=O)C6CC6)sc5c4)n3c2)cc1F` [Example 12, N-(6-{[6-((3-fluoro-4-methyl)phenyl)[1,2,4]triazolo[4,3-a]pyridin-3-yl]sulphanyl}-1,3-benzothiazol-2-yl)cyclopropanecarboxamide] registered a melting point of 191 °C. In data set [1], this molecule displayed an IC50 of less than 1000 nM. The molecule also came in with a half-maximal inhibitory concentration (IC50) at MET [2] of less than 100 nM. Also, the IC50 on MET [3] is less than 100 nM.

On to `O=C(Nc1nc2ccc(Sc3nnc4ccc(-c5cccc(F)c5)cn34)cc2s1)C1CC1` [Example 13, N-(6-{[6-(3-fluorophenyl)[1,2,4]triazolo[4,3-a]pyridin-3-yl]sulphanyl}-1,3-benzothiazol-2-yl)cyclopropanecarboxamide], for which the melting point is more than 260 °C. This molecule also came in with an IC50 in data set [1] of less than 1000 nM. The same molecule came in with an IC50 against MET [2] of less than 100 nM. The IC50 on MET [3] is less than 100 nM.

(Values after patent US20110263594A1, “NOVEL TRIAZOLO(4,3-A)PYRIDINE DERIVATIVES, PROCESS FOR THE PREPARATION THEREOF, USE THEREOF AS MEDICAMENTS, PHARMACEUTICAL COMPOSITIONS AND NOVEL USE, IN PARTICULAR AS MET INHIBITORS” (SANOFI-AVENTIS, priority 2008, published 2011).)
